Experimental data taken from article PMC11981937 (Nature, 2025).
pEC50: −log10 of the molar value. Where “and” joins values, the source holds several entries; their conditions need not be identical. Equal values may be shown once. Read-outs that look alike come from different tables or passages of the source.

Columns and labels:
MHV = MHV antiviral assay in HeLa cells (luciferase); format: cell-based, mouse hepatitis virus; conditions: Murine coronavirus, MHV (betaCoV)
SARS-CoV-2 (B1 strain) = experiment: microbe, parasite or virus in culture; format: cell-based; conditions: Severe acute respiratory syndrome coronavirus 2; SARS-CoV-2 B1, in a variety of cell types
SARS-CoV (FFM1 strain) = experiment: microbe, parasite or virus in culture; format: cell-based; conditions: Severe acute respiratory syndrome coronavirus
SHC014 = experiment: organism not typed; format: cell-based, bat SHC014
in vivo = conditions: Syrian golden, hamster; for concentration at 0.05 h / concentration at 1 h / concentration at 2 h / concentration at 4 h / concentration at 7 h / concentration at 24 h / concentration at 12 h / concentration at 0.5 h: female
[1] = format: in vivo, Syrian golden hamster; conditions: pre-exposure; for % body weight change compared to day 0, Avg: day 4 vs day 0, group average; for % body weight change compared to day 0: day 4 vs day 0, individual animals
[2] = po, 50 mg/kg, individual animal

SMILES: C[C@H]1Cn2ncc(C(=O)Nc3cccc(C#N)c3)c2C(=O)N1c1ccc(C(F)(F)c2ccccc2)cc1 [JNJ-9676, (S)-N-(3-cyanophenyl)-5-(4-(difluoro(phenyl)methyl)phenyl)-6-methyl-4-oxo-4,5,6,7-tetrahydropyrazolo[1,5-a]pyrazine-3-carboxamide]
- pEC50 (MHV; read-out: EC50 (column Median EC50; N=1, no median)): 5.89
- EC90 (MHV; read-out: EC90 (column Median EC90; N=1, no median)): 6300 nM
- pEC50 (SARS-CoV-2 (B1 strain)): 7.66 to 7.85
- pEC50 (SARS-CoV (FFM1 strain); read-out: Median EC50): 7.68
- EC90 (SARS-CoV (FFM1 strain); read-out: Median EC90): 45 nM
- pEC50 (SHC014): 8.22 to 8.40
- Vd (in vivo): 7.9 L/kg
- clearance (in vivo): 9 mL/min/kg
- half-life (in vivo): 13 h
- bioavailability (in vivo; po): > 50%
- concentration at 0.05 h (in vivo; iv, 1 mg/kg, average): 555 ng/mL
- concentration at 1 h (in vivo; iv, 1 mg/kg, average): 240 ng/mL
- concentration at 2 h (in vivo; iv, 1 mg/kg, average): 186 ng/mL
- concentration at 4 h (in vivo; iv, 1 mg/kg, average): 83.8 ng/mL
- concentration at 7 h (in vivo; iv, 1 mg/kg, average): 47.7 ng/mL
- concentration at 24 h (in vivo; iv, 1 mg/kg, average): 19.2 ng/mL
- concentration at 12 h (in vivo; iv, 1 mg/kg, average, female hamster, IV 1 mg/kg, 12 h, n=3): 25.1 ng/mL
- concentration at 0.05 h (in vivo; iv, 1 mg/kg, individual animal): 558 ng/mL
- concentration at 1 h (in vivo; iv, 1 mg/kg, individual animal): 268 ng/mL
- concentration at 2 h (in vivo; iv, 1 mg/kg, individual animal): 170 ng/mL
- concentration at 4 h (in vivo; iv, 1 mg/kg, individual animal): 75.9 ng/mL
- concentration at 7 h (in vivo; iv, 1 mg/kg, individual animal): 45.4 ng/mL
- concentration at 12 h (in vivo; iv, 1 mg/kg, individual animal): 26.7 ng/mL
- concentration at 24 h (in vivo; iv, 1 mg/kg, individual animal): 20.1 ng/mL
- concentration at 0.5 h (in vivo; po, 5 mg/kg, average): 68.1 ng/mL
- concentration at 1 h (in vivo; po, 5 mg/kg, average): 114 ng/mL
- concentration at 2 h (in vivo; po, 5 mg/kg, average): 220 ng/mL
- concentration at 4 h (in vivo; po, 5 mg/kg, average): 264 ng/mL
- concentration at 7 h (in vivo; po, 5 mg/kg, average): 176 ng/mL
- concentration at 12 h (in vivo; po, 5 mg/kg, average): 129 ng/mL
- concentration at 24 h (in vivo; po, 5 mg/kg, average): 82.6 ng/mL
- concentration at 0.5 h (in vivo; po, 5 mg/kg, individual animal): 71 ng/mL
- concentration at 1 h (in vivo; po, 5 mg/kg, individual animal): 95.4 ng/mL
- concentration at 2 h (in vivo; po, 5 mg/kg, individual animal): 230 ng/mL
- concentration at 7 h (in vivo; po, 5 mg/kg, individual animal): 142 ng/mL
- concentration at 12 h (in vivo; po, 5 mg/kg, individual animal): 89.2 ng/mL
- concentration at 12 h (in vivo; po, 5 mg/kg, individual animal, female hamster, PO 5mg/kg, 12 h): 145 ng/mL
- concentration at 0.5 h (in vivo; po, 50 mg/kg, average): 801 ng/mL
- concentration at 1 h (in vivo; po, 50 mg/kg, average): 1060 ng/mL
- concentration at 4 h (in vivo; po, 50 mg/kg, average): 2430 ng/mL
- concentration at 7 h (in vivo; po, 50 mg/kg, average): 2080 ng/mL
- concentration at 24 h (in vivo; po, 50 mg/kg, average): 655 ng/mL
- concentration at 2 h (in vivo; po, 50 mg/kg, average, female hamster, PO 50mg/kg, 2 h, n=3): 1760 ng/mL
- concentration at 12 h (in vivo; po, 50 mg/kg, average, female hamster, PO 50mg/kg, 12 h, n=3): 1200 ng/mL
- concentration at 0.5 h (in vivo; [2]): 680 ng/mL
- concentration at 1 h (in vivo; [2]): 829 ng/mL
- concentration at 2 h (in vivo; [2]): 1580 ng/mL
- concentration at 4 h (in vivo; [2]): 2230 ng/mL
- concentration at 7 h (in vivo; [2]): 1510 ng/mL
- concentration at 1 h (in vivo; po, 50 mg/kg, individual animal, female hamster, PO 50mg/kg, 1 h): 1450 ng/mL
- % body weight change compared to day 0, Avg ([1]; JNJ-9676 8.33 mpk BID): 1.86%
- % body weight change compared to day 0 ([1]; JNJ-9676 8.33 mpk BID, 8.33 mg/kg): 2.5% and 0.6% and 1.8% and 3% and 1.4%
- % body weight change compared to day 0, Avg ([1]; JNJ-9676 25 mpk BID): 5.08%
- % body weight change compared to day 0 ([1]; JNJ-9676 25 mpk BID, 25 mg/kg): 3.8% and 4.1% and 7.5% and 7.1% and 2.9%
- % body weight change compared to day 0, Avg ([1]; JNJ-9676 75 mpk BID): 2.14%
